Measurements: patent US6207399A, “Methods of determining endogenous thrombin potential (ETP) and thrombin substrates for use in said methods” (Hemker; Hendrik Coenraad, priority 1995, dated 2001)
Square brackets hold non-standard residues; d marks the D form. Peptide text beside a SMILES is read from it. * marks the point of attachment. pNA = O=[N+]([O-])c1ccc(N*)cc1; Nle = CCCC[C@H](N)C(=O)O

Columns and labels:
Assay type in all cases: biochemical
[1] = target: T1, human α-thrombin (Homo sapiens, UniProt P00734); assay: Kinetics of hydrolysis of substrates by human α-thrombin in buffer A at 37° C. (Example 2, Table 1)
T1 construct: Pure human α-thrombin; gift of Dr. T. Lindhout (University of Limburg, Maastricht)
Procedure: (§1) Kinetic parameters: The hydrolysis experiments were run in buffer A at 37° C. The liberation of p-nitroaniline was monitored at 405 nm in a dual wavelength (405-546 nm) spectrophotometer made in our workshop, using a personal computer for data recording. In a polystyrene microcuvette (total volume 500 μL), buffer A and substrate solution were added to obtain a final substrate concentration between 1 to 2000 μM. After 5 min of incubation at 37° C., enzyme solution was added to achieve a final concentration between 0.5 to 100 nM. The measurement was carried out at 37° C. in a thermostated cuvette-holder. The Michaelis constant (Km) and the catalytic constant (kcat) were obtained by measuring initial reaction velocities at different substrate concentrations. The data obtained were fitted by linear regression on the Michaelis-Menten equation.
Kinetic parameters: In a preliminary experiment, the substrate was hydrolyzed under the following conditions: enzyme concentration: 10 to 20 nM, substrate concentration: 200 μM in buffer A to get an impression of the initial velocity. […] The results are given in table 1 and 2 for thrombin and factor Xa respectively. The Km and kcat for each substrate were determined from the initial velocities measured for at least six substrate concentrations in the concentration range as given. The enzyme concentration used gives a good signal to noise ratio. The data given are obtained from one or two experiments. The data from table 1 and 2 were only used as the first selection criterion to get a rough impression of the hydrolysis behaviour. Notwithstanding the preliminary character of the measurement it was helpful in the design of the substrates of our interest.

[2] = target: T2, factor Xa (Homo sapiens, UniProt P00742); assay: Kinetic parameters of hydrolysis of the substrates by factor Xa in buffer A at 37° C. (Example 4, Table 3); set-up: key to Factor Xa kcat: NH: no hydrolysis; details: for Factor Xa kcat / Factor Xa kcat /Km / Km: buffer A, 37° C., 50 nM factor Xa
T2 construct: human factor Xa samples; gift of Dr. T. Lindhout (University of Limburg, Maastricht)
T2 sequence (P00742 41-179 limits assumed): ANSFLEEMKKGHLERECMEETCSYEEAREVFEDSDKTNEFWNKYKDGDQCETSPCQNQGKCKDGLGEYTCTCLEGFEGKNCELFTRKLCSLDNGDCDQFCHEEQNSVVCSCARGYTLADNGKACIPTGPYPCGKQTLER
T2 sequence (P00742 235-488 limits assumed): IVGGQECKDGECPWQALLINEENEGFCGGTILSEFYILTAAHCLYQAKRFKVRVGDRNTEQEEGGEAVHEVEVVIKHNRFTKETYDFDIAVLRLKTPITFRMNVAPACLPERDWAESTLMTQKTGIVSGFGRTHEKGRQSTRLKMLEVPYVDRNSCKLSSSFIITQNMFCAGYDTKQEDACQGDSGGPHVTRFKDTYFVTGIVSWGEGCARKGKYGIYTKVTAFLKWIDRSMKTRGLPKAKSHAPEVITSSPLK
Procedure: as §1, with “200” for “1”, “50” for “100”, “measuring the” for “measuring”
(§2) Kinetic parameters: The Km and kcat values for each substrate were determined at an enzyme concentration of 0.5-50 nM (thrombin) and 50 nM factor Xa. From the initial reaction velocities, measured for at least six substrate concentrations between 200 and 2000 μM, the Km and kcat values were calculated by linear regression on the Michaelis-Menten curve. Table 3 gives an overview of the kinetic parameters of the different substrates hydrolyzed by thrombin and by factor Xa in buffer A.

[3] = target: thrombin (Homo sapiens, UniProt P00734); assay: Kinetic parameters of hydrolysis of the substrates by thrombin in buffer A at 37° C. (Example 4, Table 3); set-up: Pure human α-thrombin; gift of Dr. T. Lindhout (University of Limburg, Maastricht); key to Thrombin kcat: NH: no hydrolysis; details: for Km / Thrombin kcat / Thrombin kcat /Km: buffer A, 37° C.
Procedure: as §1, with “200” for “1”, “50” for “100”, “measuring the” for “measuring”
as §2

Cl.Cl.NCCCC[C@H](NC(=O)[C@@H]1CCCN1C(=O)[C@H](N)Cc1ccccc1)C(=O)Nc1ccc([N+](=O)[O-])cc1 [2HCl.H-D-Phe-Pro-Lys-pNA] (H-[dF]-Pro-Lys-pNA)
Km [1]: 35 µM | kcat [1]: 90.4 s⁻¹ | kcat /Km [1]: 2.58e+06 M/s | Factor Xa kcat [2]: NH | Km [3]: 35 µM | Thrombin kcat [3]: 90 s⁻¹ | Thrombin kcat /Km [3]: 2.58e+06 M/s

CC(C)[C@H](NC(=O)CN)C(=O)N[C@@H](CCCCN)C(=O)Nc1ccc([N+](=O)[O-])cc1.Cl.Cl [2HCl.H-Gly-Val-Lys pNA, 2HCl.H-Gly-Val-Lys-pNA] (H-Gly-Val-Lys-pNA)
hydrolysis by Factor Xa (text on Table 3) [2]: not by Factor Xa | Factor Xa kcat [2]: NH | hydrolysis by thrombin (text on Table 3) [3]: hydrolysed by thrombin | Km [3]: 986 µM | Thrombin kcat [3]: 0.20 s⁻¹ | Thrombin kcat /Km [3]: 198 M/s

CCCC[C@H](NC(=O)[C@@H](NC(=O)CN)C(C)C)C(=O)Nc1ccc([N+](=O)[O-])cc1.Cl [HCl.H-Gly-Val-Nle-pNA] (H-Gly-Val-[Nle]-pNA)
hydrolysis by Factor Xa (text on Table 3) [2]: hydrolysed by neither thrombin nor Factor Xa | Factor Xa kcat [2]: NH | hydrolysis by thrombin (text on Table 3) [3]: hydrolysed by neither thrombin nor Factor Xa | Thrombin kcat [3]: NH

CC(C)[C@H](NC(=O)CNC(=O)CNC(=O)CNC(=O)[C@@H](N)CCC(=O)O)C(=O)N[C@@H](CCCNC(=N)N)C(=O)Nc1ccc([N+](=O)[O-])cc1 [2HCl.H-EGGGVR-pNA, 2HCl.H-Glu-Gly-Gly-Gly-Val-Arg-pNA] (H-EGGGVR-pNA)
Factor Xa kcat [2]: 0.30 s⁻¹ | Factor Xa kcat /Km [2]: 201 M/s | Km [2]: 1490 µM | Km [3]: 379 µM | Thrombin kcat [3]: 0.27 s⁻¹ | Thrombin kcat /Km [3]: 704 M/s

CC(C)[C@H](NC(=O)CNC(=O)[C@@H](N)CCC(=O)O)C(=O)N[C@@H](CCCNC(=N)N)C(=O)Nc1ccc([N+](=O)[O-])cc1 [2HCl.H-Glu-Gly-Val-Arg-pNA] (H-EGVR-pNA)
Factor Xa kcat [2]: 0.93 s⁻¹ | Factor Xa kcat /Km [2]: 638 M/s | Km [2]: 1430 µM | Km [3]: 3270 µM | Thrombin kcat [3]: 3.51 s⁻¹ | Thrombin kcat /Km [3]: 1070 M/s
